According to PubChem BioAssay (NCI):
Values joined by “and” are separate entries in the source; they are usually repeats but may differ in a detail not shown here. Equal entries are not always repeated.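 How tested: cells in 96-well plates exposed to compound for 48 hours at five concentrations. At the GI50, growth is halved. Definition used: TGI = concentration required for complete inhibition of growth.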 Where a SMILES comes first, the peptide text is derived from it. [ ]: non-standard residue; d: D form. Ava = NCCCCC(=O)O; Mpa = O=C(O)CCS

Key:
Experiment in all cases: DTP human tumour cell line panel, 48 h
A549 NSCLC = tested on: A549 NSCLC
CCRF-CEM leukemia = tested on: CCRF-CEM leukemia
HL-60(TB) leukemia = tested on: HL-60(TB) leukemia
HOP-92 NSCLC = tested on: HOP-92 NSCLC
MDA-MB-435 = tested on: MDA-MB-435
NCI-H23 lung = tested on: NCI-H23 lung
NCI/ADR-RES ovarian = tested on: NCI/ADR-RES ovarian
SF-295 CNS = tested on: SF-295 CNS
U251 CNS = tested on: U251 CNS
UO-31 renal = tested on: UO-31 renal

Compound | TGI (A549 NSCLC) | TGI (CCRF-CEM leukemia) | TGI (HL-60(TB) leukemia) | TGI (HOP-92 NSCLC) | TGI (MDA-MB-435) | TGI (NCI-H23 lung) | TGI (NCI/ADR-RES ovarian) | TGI (SF-295 CNS) | TGI (U251 CNS) | TGI (UO-31 renal) | GI50 (A549 NSCLC) | GI50 (CCRF-CEM leukemia) | GI50 (HOP-92 NSCLC) | GI50 (NCI-H23 lung) | GI50 (NCI/ADR-RES ovarian) | GI50 (SF-295 CNS) | GI50 (U251 CNS) | GI50 (UO-31 renal)
COc1cc(/C=C/C(=O)CC(=O)/C=C/c2cc(C)c(O)c(OC)c2)cc(C)c1O | > 100 µM | > 100 µM | > 100 µM | > 100 µM | > 100 µM | > 100 µM | > 100 µM | > 100 µM | > 100 µM | > 100 µM |  |  |  |  |  |  |  | 
COc1c(C(=O)/C(=N/Nc2ccc(C(=O)O)cc2)C(C)=O)c(O)cc2occc12 | > 100 µM | > 100 µM | > 100 µM | > 100 µM | > 100 µM | > 100 µM | > 100 µM | > 100 µM | > 100 µM | > 100 µM |  |  |  |  |  |  |  | 
CS(=O)(=O)OCCN(CCOS(C)(=O)=O)c1ccc(C=Nc2ccc(-c3csc(Cc4ccccc4)n3)cc2)c(Cl)c1 | > 83.7 µM | > 61.2 µM | 35.7 µM | 46.5 µM | > 78.2 µM | 70.6 µM | > 70 µM | > 86.3 µM | > 83.3 µM | > 85.8 µM |  |  |  |  |  |  |  | 
COc1cc2c(cc1OC)C(CCN)=NCC2 | > 100 µM | 5.12 µM | 2.06 µM | 15.1 µM | 31.4 µM | 34.3 µM | > 69 µM | > 100 µM | 30.8 µM | 4.2 µM |  |  |  |  |  |  |  | 
O=C(NC(=S)Nc1ccc(Br)cc1)c1ccc2c(c1)Sc1ccccc1O2 | > 100 µM | > 100 µM | > 100 µM | 74.9 µM | > 100 µM | > 100 µM | > 100 µM | > 100 µM | > 100 µM | > 100 µM |  |  |  |  |  |  |  | 
Cc1ccc(C(=O)Nc2ccc(S(=O)(=O)O)c3cc(S(=O)(=O)O)cc(S(=O)(=O)O)c23)cc1NC(=O)c1cccc(NC(=O)Nc2cccc(C(=O)Nc3cc(C(=O)Nc4ccc(S(=O)(=O)O)c5cc(S(=O)(=O)O)cc(S(=O)(=O)O)c45)ccc3C)c2)c1 | > 100 µM | > 100 µM | > 100 µM | > 100 µM | > 100 µM | > 100 µM | > 100 µM | > 100 µM | > 100 µM | 87.3 µM |  |  |  |  |  |  |  | 
O=C(Nc1ccccc1C(=O)NCc1ccccc1)/C(=C/c1ccccc1O)NC(=O)c1ccccc1 | > 100 µM | > 100 µM | > 100 µM | > 100 µM | > 100 µM | > 100 µM | > 100 µM | > 100 µM | > 100 µM | > 100 µM |  |  |  |  |  |  |  | 
CCO/N=C\c1ccc2oc(-c3ccccc3)cc(=O)c2c1 | 17 µM | 26 µM | 12.2 µM | 31.5 µM | 2.49 µM | 9.05 µM | 0.436 µM | 16.3 µM | 17.6 µM | 5.83 µM |  |  |  |  |  |  |  | 
O=[N+]([O-])c1ccc2c(c1)nc1n2C(c2c(F)cccc2F)SC1 (configuration not stated) | > 100 µM | > 100 µM | > 100 µM | > 100 µM | > 100 µM | > 100 µM | > 100 µM | > 100 µM | > 100 µM | > 100 µM |  |  |  |  |  |  |  | 
ClCCCN1CCN(CCCl)CC1 | > 851 µM | 437 µM | 62.3 µM and 141 µM |  | > 930 µM | 586 µM | 628 µM | 456 µM | 543 µM | 493 µM | 96.2 µM | 2.54 µM | 0.0248 µM | 19.5 µM | 66.3 µM | 40.8 µM | 79.6 µM | 56.4 µM
COc1ccc2c(c1)/C(=C\c1c(Cl)nc3n1CCS3)C(=O)N2 | > 100 µM | 79.2 µM | 17.2 µM | > 100 µM | 4.82 µM | 72.2 µM | 88.3 µM | 44.5 µM | 57.6 µM | > 100 µM |  |  |  |  |  |  |  | 
CCOC(=O)NC(Nc1ccc(F)cc1F)(C(F)(F)F)C(F)(F)F | > 100 µM | > 100 µM | > 100 µM | > 100 µM | > 100 µM | > 100 µM | > 100 µM | > 100 µM | > 100 µM | > 100 µM |  |  |  |  |  |  |  | 
COC(=O)C1(Cc2ccc3c(c2)CCC3)Cc2ccc3c(c2C1=O)CCC3 (configuration not stated) | > 100 µM | > 83.1 µM | 8.83 µM | 54 µM | 6.13 µM | > 71.6 µM | 13.8 µM | > 72.6 µM | > 69.6 µM | > 100 µM |  |  |  |  |  |  |  | 
O=c1c(NCc2ccccc2)c(C2(c3ccccc3F)SCCCS2)c1=O | > 100 µM | > 100 µM | > 100 µM | > 100 µM | > 100 µM | > 100 µM | > 100 µM | > 100 µM | > 100 µM | > 100 µM |  |  |  |  |  |  |  | 
O=C(CCCc1cccc2[nH]c3c(c12)CN(Cc1ccccc1)CC3)c1ccc(F)cc1 | > 100 µM | > 100 µM | 10.3 µM | > 100 µM | > 100 µM | > 52.3 µM | > 100 µM | > 100 µM | > 100 µM | > 100 µM |  |  |  |  |  |  |  | 
COc1ccc(SCc2cc(OC)ccc2OC)cc1 | > 100 µM | > 96.4 µM | > 100 µM | 94.3 µM | 13 µM | > 100 µM | > 100 µM | > 100 µM | > 100 µM | > 100 µM |  |  |  |  |  |  |  | 
Nc1cc(C2CCCc3c2[nH]c2ccccc32)ccc1O (configuration not stated) | > 100 µM | > 100 µM | 50.3 µM | > 100 µM | 33.2 µM | > 100 µM | > 100 µM | > 100 µM | > 100 µM | > 100 µM |  |  |  |  |  |  |  | 
CC(NC(=O)CCS)C(=O)NC(C)C(=O)NC(Cc1c[nH]c2ccccc12)C(=O)NC(Cc1c[nH]cn1)C(=O)NC(CO)C(=O)NC(Cc1c[nH]c2ccccc12)C(=O)NCCCCC(=O)NC(C)C(=O)NC(CCC(N)=O)C(=O)NC(CCCCN)C(=O)NC(C)C(=O)NC(CCCNC(=N)N)C(=O)NC(CCCCN)C(N)=O (configuration not stated) ([Mpa]AAWHSW[Ava]AQKARK-NH2; configuration not given here) | > 100 µM | > 100 µM | 65.4 µM | > 100 µM | > 100 µM | > 100 µM | > 100 µM | > 100 µM | > 100 µM | > 100 µM |  |  |  |  |  |  |  | 
COc1cc(/C=C2\C(=O)N(c3cccc(NC(C)=O)c3)C(c3ccccc3)S2(=O)=O)cc(OC)c1OC (configuration not stated) | > 100 µM | > 100 µM | 44.5 µM | > 100 µM | > 100 µM | > 100 µM | > 100 µM | > 100 µM | > 100 µM | > 100 µM |  |  |  |  |  |  |  | 
